# Residue numbers refer to the chain shown, from its start.
# Legend:
# GlyT2 T512A mutant = molecular target: T1, GlyT2 T512A mutant (Homo sapiens, UniProt Q9Y345, T512A); experiment: Inhibitor concentration–responses on glycine transport currents, two-electrode voltage clamp; format: cell-based; design: expressed in transfected cells; host or cells: Xenopus laevis oocytes injected with mutant RNA (pOTV vector); details: for IC50: T512A GlyT2 in Xenopus laevis oocytes
# T1 sequence (Q9Y345 1-797 T512A): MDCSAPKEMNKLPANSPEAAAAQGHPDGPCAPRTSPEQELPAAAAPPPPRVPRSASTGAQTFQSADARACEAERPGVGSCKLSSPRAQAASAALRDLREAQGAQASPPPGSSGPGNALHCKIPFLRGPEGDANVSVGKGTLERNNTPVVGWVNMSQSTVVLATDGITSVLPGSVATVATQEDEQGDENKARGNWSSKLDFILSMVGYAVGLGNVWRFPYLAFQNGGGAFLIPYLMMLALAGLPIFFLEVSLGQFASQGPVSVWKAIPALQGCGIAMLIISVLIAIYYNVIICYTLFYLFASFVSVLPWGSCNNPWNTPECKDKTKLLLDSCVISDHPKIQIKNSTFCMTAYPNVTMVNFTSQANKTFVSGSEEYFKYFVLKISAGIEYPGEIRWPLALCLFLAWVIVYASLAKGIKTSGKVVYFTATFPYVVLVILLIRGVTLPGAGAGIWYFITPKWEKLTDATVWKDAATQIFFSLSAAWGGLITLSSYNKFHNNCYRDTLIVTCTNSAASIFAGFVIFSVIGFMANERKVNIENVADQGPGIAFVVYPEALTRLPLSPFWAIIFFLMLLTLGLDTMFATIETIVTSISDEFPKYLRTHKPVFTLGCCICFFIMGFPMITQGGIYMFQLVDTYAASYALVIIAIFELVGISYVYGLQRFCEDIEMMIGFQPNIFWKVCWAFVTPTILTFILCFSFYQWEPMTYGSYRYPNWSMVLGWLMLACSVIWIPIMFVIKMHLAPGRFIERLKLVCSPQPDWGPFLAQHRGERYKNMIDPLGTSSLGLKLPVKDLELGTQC
# Protocol: (§1) Because of the slowly reversible nature of the compounds tested, inhibitor concentration–responses were performed cumulatively. An EC50 concentration of glycine was applied until a stable transport current was reached. EC50 concentrations of glycine were used to produce reliable currents for each transporter, and as the inhibitors are non-competitive, application of varying glycine concentrations is unlikely to affect their activity. Increasing concentrations of inhibitors were co-applied with glycine with each concentration producing a distinct plateau before the subsequent concentration was applied. Inhibitor concentration–responses were limited to a maximum concentration of 3 µM to mitigate the risk of changes to the free drug concentration because of micelle formation. Currents after the plateau of each inhibitor concentration were normalized to the current produced by application of glycine alone and fit using the method of least squares: Y=Bottom+(Top−Bottom)/(1+10^[X−LogIC50]), where X is log [inhibitor], Y is current normalized to glycine in the absence of inhibitor, and Top and Bottom are the maximal and minimal plateaus, respectively. The method of least squares was constrained to have the bottom value >0 and the hill slope as −1, enabling the calculation of IC50 values and the extent of inhibition produced by the maximal concentration applied.
# (§2) IC50 values are presented as the mean and 95% confidence interval, whereas inhibition values are presented as the mean ± SEM. Data sets are n ≥ 5 from two batches of oocytes.
# GlyT2 Y430F mutant = molecular target: T2, GlyT2 Y430F mutant (Homo sapiens, UniProt Q9Y345, Y430F); experiment: as above; format: cell-based; design: expressed in transfected cells; host or cells: Xenopus laevis oocytes injected with mutant RNA (pOTV vector); details: for IC50: Y430F GlyT2 in Xenopus laevis oocytes
# T2 sequence (Q9Y345 1-797 Y430F): T1 sequence (Q9Y345 1-797 T512A) with Y430F, A512T
# Protocol: as §1, §2
Compound,IC50 (GlyT2 T512A mutant; 95% CI could not be fit),"Inhibition at 1 µM (column head 3 μM, footnote b) (GlyT2 T512A mutant; T512A, 1 µM)",IC50 (GlyT2 Y430F mutant),"Inhibition at 1 µM (column head 3 μM, footnote b) (GlyT2 Y430F mutant; Y430F, 1 µM)",IC50 (GlyT2 T512A mutant),Inhibition at 3 μM (GlyT2 T512A mutant; T512A),Inhibition at 3 μM (GlyT2 Y430F mutant; Y430F)
"CCCCCCCC/C=C\CCCCCCCC(=O)O[C@H](CC(=O)[O-])C[N+](C)(C)C [Oleoyl-L-Carnitine, oleoyl-L-carnitine]",1.7 µM,44.1 ± 2.8^b %,0.19 µM,71.0 ± 3.3^*b %,–,–,–
"CCCCCCCC/C=C\CCCCCCCC(=O)N[C@@H](CC(C)C)C(=O)O [Oleoyl-L-Leucine, oleoyl-L-leucine]",–,–,0.203 µM,–,0.549 µM,50.7 ± 5.7 %,76.7 ± 2.8%
"CCCCCCCC/C=C\CCCCCCCC(=O)N[C@@H](CCCCN)C(=O)O [Oleoyl-L-Lysine, oleoyl-L-lysine]",–,–,0.123 µM,–,0.679 µM,68.0 ± 1.7 %,92.9 ± 1.7%
"CCCCCCCC/C=C\CCCCCCCC(=O)N[C@@H](Cc1c[nH]c2ccccc12)C(=O)O [Oleoyl-L-Tryptophan, oleoyl-L-tryptophan]",–,–,0.125 µM,–,0.085 µM,74.4 ± 4.5%,84.5 ± 3.6%
